Among the data in publication PMC6100582 (Molecules : A Journal of Synthetic Chemistry and Natural …, 2018) are MIC, melting point and IC50 values, retold here.

In data set [1] the test system is Mycobacterium marinum CAMP 5644. The data set can be described thus: Antimycobacterial susceptibility assay (MIC determination). To be noted: Mycobacterium marinum, CAMP5644, 504 h. Type of data set: cell-based. The procedure: The broth dilution micro-method in Middlebrook 7H9 medium (Difco, Lawrence, KS, USA) supplemented with ADC Enrichment (Becton, Dickinson and Comp.) was used to determine MIC as previously described. […] Bacterial inocula were prepared by transferring colonies from culture to sterile water. The cell density was adjusted to 0.5 McFarland units using a densitometer (Densi-La-Meter, LIAP, Riga, Latvia). The final inoculum was made by 1:1000 dilution of the suspension with sterile water. Drug-free controls, sterility controls and controls consisted of medium and DMSO (Sigma-Aldrich, St. Louis, MO, USA) alone were included. […] Ciprofloxacin (CIP), rifampicin (RIF) and isoniazid (INH) (Sigma-Aldrich, St. Louis, MO, USA) were used as the standards.

Data set [2] deals with Mycobacterium tuberculosis H37Ra. The data set is described as above. To be noted: 168 h, 7 days, 37 °C, alamarBlue. Type of data set: cell-based. The procedure: At log phase growth, a culture sample (10 mL) was centrifuged at 15,000 rpm/20 min using a bench-top centrifuge (MPW-65R, MPW Med Instruments, Poland). Following removal of the supernatant, the pellet was washed in fresh Middlebrook 7H9GC broth and re-suspended in fresh, ODAC-supplemented MB (10 mL). The turbidity was adjusted to match McFarland standard No. 1 (3 × 10^8 CFU) with MB broth. A further 1:20 dilution of the culture was then performed in MB broth. The antimicrobial susceptibility of M. tuberculosis was investigated in a 96-well plate format. In these experiments, sterile deionised water (300 µl) was added to all outer-perimeter wells of the plates to minimize evaporation of the medium in the test wells during incubation. Each evaluated compound (100 µL) was incubated with M. tuberculosis (100 µl). Dilutions of each compound were prepared in duplicate. For all synthesized compounds, final concentrations ranged from 1000 μg/mL to 8 μg/mL. All compounds were dissolved in DMSO, and subsequent dilutions were made in supplemented MB. […] Following incubation, 10% of alamarBlue (Difco, Lawrence, KS, USA) was mixed into each well, and readings at 570 nm and 600 nm were taken, initially for background subtraction and subsequently after 24 h reincubation. […] For non-interfering compounds, a blue colour in the well was interpreted as the absence of growth, and a pink colour was scored as growth.
For orientation: The colour change of resazurin is a common sign of viable cells or microbes.

A further data set concerns MM.1S (multiple myeloma). The data set can be described thus: Antiproliferative screening (cytostatic activity). Format: cell-based. The note with it: Homo sapiens, MM1.S, 72 h, read-out: IC50 MM.1S. The procedure: (§1) All human tumor cell lines were acquired from the American Type Culture Collection (ATCC, Manassas, VA, USA), except for the DND-41 cell line which was purchased from the Deutsche Sammlung von Mikroorganismen und Zellkulturen (DSMZ Leibniz-Institut, Braunschweig, Germany) and the Hap1 cell line which was purchased from Horizon Discovery (Waterbeach, UK). […] All media were supplemented with 10% FBS (HyClone, GE Healthcare Life Sciences, USA). […] After overnight incubation, cells were treated with test compounds at four different concentrations ranging from 100 to 0.8 µM. […] Images were taken every 3 h, with one field image per well under 10× magnification. All compounds were tested with duplicate data points and averaged.

Data set [3] relates to NCI-H460 (lung carcinoma). The data set can be described thus: Antiproliferative screening (cytostatic activity). Type of data set: cell-based. The note with it: Homo sapiens, NCI-H460, 72 h, read-out: IC50 NCI-H460. How it is done: as §1
Data set [4] has as its system HCT-116 (colorectal carcinoma). The data set can be described thus: Antiproliferative screening (cytostatic activity). Type of data set: cell-based. The note with it: Homo sapiens, HCT-116, 72 h, read-out: IC50 HCT-116. The procedure: as §1
For data set [5], the system named is K-562 (chronic myeloid leukemia). The data set can be described thus: Antiproliferative screening (cytostatic activity). The note with it: Homo sapiens, K562, 72 h, read-out: IC50 K-562. Format: cell-based. The procedure:
as §1

Data set [6] concerns Capan-1 (pancreatic adenocarcinoma). The data set can be described thus: Antiproliferative screening (cytostatic activity). Type of data set: cell-based. To be noted: Homo sapiens, CAPAN-1, 72 h, read-out: IC50 Capan-1. The procedure:
as §1

In data set [7] the test system is Z-138 (non-Hodgkin lymphoma). The data set can be described thus: Antiproliferative screening (cytostatic activity). Type of data set: cell-based. To be noted: Homo sapiens, Z-138, 72 h, read-out: IC50 Z-138. How it is done: as §1
For data set [8], the system named is HL-60 (acute myeloid leukemia). The data set can be described thus: Antiproliferative screening (cytostatic activity). Format: cell-based. To be noted: Homo sapiens, HL-60, 72 h, read-out: IC50 HL-60. The procedure: (§2) Cytostatic activity was evaluated in vitro on nine different types of human tumor cell lines: Capan-1, Hap1, HCT-116, and NCI-H460, as well as hematological tumors such as DND-41, HL-60, K-562, MM.1S and Z-138 as described previously. All human tumor cell lines were acquired from the American Type Culture Collection (ATCC, Manassas, VA, USA), except for the DND-41 cell line which was purchased from the Deutsche Sammlung von Mikroorganismen und Zellkulturen (DSMZ Leibniz-Institut, Braunschweig, Germany) and the Hap1 cell line which was purchased from Horizon Discovery (Waterbeach, UK). Capan-1, Hap1, HL-60, K-562, Z-138, MM.1S and DND-41 were cultured in Iscove′s Modified Dulbecco′s Medium (IMDM, Gibco Life Technologies, Gaithersburg, MD, USA), HCT-116 were grown in McCoy′s 5A Medium (Gibco Life Technologies) and NCI-H460 were cultured in RPMI (Gibco Life Technologies). All media were supplemented with 10% FBS (HyClone, GE Healthcare Life Sciences, USA). Adherent cell lines HCT-116, Hap1, NCI-H460, and Capan-1 cells were seeded at a density between 400 and 1250 cells per well, in 384-well, black-walled, clear-bottomed tissue culture plates (Greiner Bio-One, Kremsmünster, Germany). After overnight incubation, cells were treated with test compounds at four different concentrations ranging from 100 to 0.8 µM. Suspension cell lines HL-60, K-562, Z-138, MM.1S, and DND-41 were seeded at densities ranging from 3000 to 10,000 cells per well in 384-well, black-walled, clear-bottomed tissue culture plates containing test compounds at the same four concentrations. The plates were incubated and monitored at 37 °C for 72 h in an IncuCyte (Essen BioScience Inc., Ann Arbor, MI, USA) for real-time imaging. Images were taken every 3 h, with one field image per well under 10× magnification. All compounds were tested with duplicate data points and averaged. […]

For data set [9], the system named is Hap1 (chronic myeloid leukemia). The data set can be described thus: Antiproliferative screening (cytostatic activity). Type of data set: cell-based. The note with it: Homo sapiens, HAP1, 72 h, read-out: IC50 Hap1. The procedure: as §2
The subject of data set [10] is DND-41 (acute lymphoblastic leukemia). The data set can be described thus: Antiproliferative screening (cytostatic activity). Format: cell-based, human. To be noted: Homo sapiens, DND41, 72 h, 72 h, read-out: IC50 DND-41. The procedure:
as §2

Where [11] appears, read: DXT and STS values in nM (footnote).

SMILES strings stand for the structures. In brackets after ≈: the same amount, converted by molar mass. Where two headings read alike, the source gives them in different places.

With `O=C(O)c1cn(C2CC2)c2cc(N3CCNCC3)c(F)cc2c1=O` [CIP, ciprofloxacin, reference compound], the results for the MIC in data set [1] and in data set [2] were 0.3 µg/mL (≈ 0.905 µM) and 16 µg/mL (≈ 48.3 µM), respectively.

Regarding `COc1cc(NC(C)CCCNC(=O)CCC(=O)Nc2cccc(F)c2)c2ncccc2c1` (centres unmarked) [Compound 5a, N-(3-Fluorophenyl)-N′-{4-[(6-methoxyquinolin-8-yl)amino]pentyl}butanediamide], the melting point – broadly, the temperature, or range, at which the solid turns liquid – is 140 to 142 °C.

`COc1cc(NC(C)CCCNC(=O)CCC(=O)Nc2ccc(F)cc2)c2ncccc2c1` (centres unmarked) [Compound 5b, N-(4-Fluorophenyl)-N′-{4-[(6-methoxyquinolin-8-yl)amino]pentyl}butanediamide]: the melting point lay within 118 to 120 °C.

Compound `COc1cc(NC(C)CCCNC(=O)CCC(=O)Nc2cccc(Cl)c2)c2ncccc2c1` (centres unmarked) [Compound 5c, N-(3-Chlorophenyl)-N′-{4-[(6-methoxyquinolin-8-yl)amino]pentyl}butanediamide] showed a melting point of 156 to 158 °C.

In the case of `COc1cc(NC(C)CCCNC(=O)CCC(=O)Nc2ccc(Cl)cc2)c2ncccc2c1` (centres unmarked) [Compound 5d, N-(4-Chlorophenyl)-N′-{4-[(6-methoxyquinolin-8-yl)amino]pentyl}butanediamide], the melting point was 152 to 153 °C.

Consider `COc1cc(NC(C)CCCNC(=O)CCC(=O)Nc2cccc(C(F)(F)F)c2)c2ncccc2c1` (centres unmarked) [Compound 5e, N′-{4-[(6-Methoxyquinolin-8-yl)amino]pentyl}-N-[3-(trifluoromethyl)phenyl]butanediamide], for which the melting point fell in the range of 146 to 149 °C.

The compound `COc1cc(NC(C)CCCNC(=O)CCC(=O)Nc2ccc(C(F)(F)F)cc2)c2ncccc2c1` (centres unmarked) [Compound 5f, N′-{4-[(6-Methoxyquinolin-8-yl)amino]pentyl}-N-[4-(trifluoromethyl)phenyl]butanediamide] gave a melting point of 163 to 165 °C.

In the case of `CC(=O)O[C@@]12CO[C@@H]1C[C@H](O)[C@@]1(C)C(=O)[C@H](O)C3=C(C)[C@@H](OC(=O)[C@H](O)[C@@H](NC(=O)OC(C)(C)C)c4ccccc4)C[C@@](O)([C@@H](OC(=O)c4ccccc4)[C@H]21)C3(C)C` [DXT, docetaxel, reference compound], the IC50 (usually the point on the concentration scale where inhibition reaches its midpoint) in the data set with MM.1S (multiple myeloma) (setting [11]) was found to be 3.38 nM; in data set [3] (setting [11]), 1.3 nM; in data set [4] (setting [11]), 7.66 nM; in data set [5] (setting [11]) it was 1.22 nM; in data set [6] (setting [11]), 0.75 nM; in [7] (setting [11]), 5.42 nM. Moreover, the figures for the concentration for half-maximal inhibition (IC50) in data set [8] (setting [11]), in data set [9] (setting [11]) and in [10] (setting [11]) were 1.24 nM, 1.17 nM and 0.94 nM, respectively.

Consider `COc1cc([C@@H]2c3cc4c(cc3[C@@H](O[C@@H]3O[C@@H]5CO[C@@H](C)O[C@H]5[C@H](O)[C@H]3O)[C@H]3COC(=O)[C@H]23)OCO4)cc(OC)c1O` [EPEG, etoposide, reference compound], for which the IC50 came to 970 nM in the data set on MM.1S (multiple myeloma) (IncuCyte imaging); 90 nM in data set [3] (IncuCyte imaging); 1350 nM in data set [4] (IncuCyte imaging); 10 nM in data set [5] (IncuCyte imaging); 150 nM in data set [6] (IncuCyte imaging); 20 nM in data set [7] (IncuCyte imaging). Further, the IC50 is 30 nM in [8] (IncuCyte imaging), 40 nM in data set [9] (IncuCyte imaging) and 30 nM in data set [10] (IncuCyte imaging).

As to `NNC(=O)c1ccncc1` [INH, isoniazid, reference compound], the figures for the MIC in [1] and in data set [2] were 64 µg/mL (≈ 467 µM) and 5 µg/mL (≈ 36.5 µM), respectively.

As to `CO[C@H]1/C=C/O[C@@]2(C)Oc3c(C)c(O)c4c(O)c(c(/C=N/N5CCN(C)CC5)c(O)c4c3C2=O)NC(=O)/C(C)=C\C=C\[C@H](C)[C@H](O)[C@@H](C)[C@@H](O)[C@@H](C)[C@H](OC(C)=O)[C@@H]1C` [RIF, rifampicin, reference compound], the MIC (commonly the smallest concentration in the dilution series that meets the test's criterion for growth inhibition) in data set [1] came to 2.2 µg/mL (≈ 2.67 µM).

As to `CN[C@@H]1C[C@H]2O[C@@](C)([C@@H]1OC)n1c3ccccc3c3c4c(c5c6ccccc6n2c5c31)C(=O)NC4` [STS, staurosporine, reference compound], the results for the IC50 in data set [8] (setting [11]), in data set [9] (setting [11]) and in [10] (setting [11]) were 13.1 nM, 3.56 nM and 6.96 nM, respectively.
